{"source": "patent US9364469B1", "about": "“Identification of a new AMPK activator for treatment of lung cancer” (Macau University of Science and Technology, priority 2015, dated 2016)", "key": {"ACC": {"system": "ACC", "assay": "Western blot analysis of ACC phosphorylation", "type": "cell-based", "conditions": "H1975 cells, 24 hours", "protocol": "(§1) After incubating H1975 cells with D561-0775 for 24 hours, H1975 cells were harvested and washed with cold 1×PBS. Then, cells were lysed with ice-cold RIPA lysis buffer with protease and phosphatase inhibitors added to extract the cell protein extraction. The supernatants were collected by centrifugation at 12,000 g, for 5 minutes. The quantitation of total protein extraction was measured by Bio-Rad DCTM protein assay kit (Bio-Rad, Philadelphia, Pa., USA). Then 30 μg of protein was loaded and electrophoretically separated on 8% SDS-PAGE gel and then transferred to Nitrocellulose (NC) membrane. Membranes were blocked with 5% non-fat milk and […] containing 0.1% Tween-20 (TBST) for 1 hour at room temperature. After 1 hour, membranes were incubated with primary anti-bodies (1:1000 dilution) against GAPDH, total/phosphor-ACC, total-AMPK, and (1:500 dilution) against phosphor-AMPK, at 4° C. with gently shaking overnight. Membranes were washed with TBST for 3 times (5 minutes/time), and incubated with secondary fluorescent antibody (1:10000 dilutions) for 1 hour at room temperature. After rewashing the membranes with TBST for 3 times (15 minutes/time), the stripes were visualized by LI-COR Odessy scanner (Belfast, Me., USA)."}, "AMPK kinase": {"system": "AMPK kinase", "assay": "AMPK enzyme activity assay (CycLex AMPK Kinase Assay Kit)", "type": "biochemical", "conditions": "indicated concentrations, n=3, ** p<0.005, ***p<0.001", "source_text": "The CycLex AMPK Kinase Assay Kit (CycLex Co., Ltd., Nagano, Japan) was used to detect the activation of AMPK by D561-0775. AMP was used as positive control, compound c was used as AMPK inhibitor, and AMPK kinase was used for representing the basal level."}, "H1975 cells [1]": {"system": "H1975 cells", "assay": "MTT cytotoxicity assay", "type": "cell-based", "conditions": "72 h treatment, read-out: IC50 (cell proliferation, MTT)", "protocol": "H1975 was purchased from ATCC (American type culture collection) and was cultivated with RPMI 1640 medium supplement with 10% fetal bovine serum (Gibco, Big Cabin, Oklahoma, Me., USA), 100 U/mL, penicillin and 100 μg/mL and streptomycin (Gibco, Big Cabin, Oklahoma, Me., USA). The cells were cultured in incubator with 5% CO2 at 37° C.\nCells were seeded in a 96-well microplate with 5000 cells/well confluence, and put into the incubator overnight for cell adhesion. Different concentrations of the drug D561-0775 were added with Dimethyl sulfoxide (DMSO) as vehicle control. The microplates were incubated for another 72 hours. The whole experiment was repeated in triplicate. 10 μL of MTT (5 mg/mL) solution was added to each well. The plate was placed back into the incubator for 4 hours. After that, 100 μL of resolved solution (10% SDS and 0.1 mM HCL) was added to each well. Before dissolving the formazan crystals, the microplate was put back into the incubator for another 4 hours. The absorbance of the plate was measured at 570 nm with reference at 650 nm by a microplate reader (Tecan, Morrisville, N.C., USA). Cell viability was calculated by percentages of the absorbance of the treatment group divided by the absorbance of untreated group. At least three independent experiments were performed for data analysis and presentation."}, "AMPK": {"system": "AMPK", "assay": "Western blot analysis of AMPK phosphorylation", "type": "cell-based", "conditions": "H1975 cells, 24 hours", "protocol": "as §1"}, "H1975 cells [2]": {"system": "H1975 cells", "assay": "Apoptosis assay (Annexin V/PI flow cytometry, morphology observation)", "type": "cell-based", "conditions": "48 h", "protocol": "H1975 cells (1×10^5 cells/well) were seeded in a 6-well plate for 24 hours, and treated with the indicated concentrations of D561-0775 for an additional 48 hours at 37° C. After 48 hours, the cells were washed by ice-cold 1×PBS once and harvested by trypsination. Then cells were centrifuged, collected and re-suspended in ice-cold 1×PBS. After removing the supernatants, cell pellets were re-suspended in 100 μL 1× Annexin-binding buffer. The cells were then double-stained with Annexin-V FITC and PI (100 μg/mL) of 2 μL respectively for 15 min at room temperature in dark. After that, 300 μL 1× Annexin-binding buffer was added. Apoptotic cells were quantitatively counted by a BD Aria III Flow Cytometer (BD Biosciences, San Jose, Calif., USA)"}, "[3]": {"conditions": "20 μM treatment group, **p<0.01, n=3"}}}
{"smiles": "N#Cc1nc(-c2ccc(COc3ccc(Br)cc3)o2)oc1NCc1cccnc1", "note": "[D561-0775]", "values": [{"measurement": "phosphorylation of ACC", "setting": "ACC", "result": "activated phosphorylation of both AMPK and ACC in a dose-dependent manner"}, {"measurement": "AMPK kinase activity (fold of AMPK kinase alone group)", "setting": "AMPK kinase", "result": "enhanced in a dose-dependent manner"}, {"measurement": "IC50", "setting": "H1975 cells [1]", "result": "9.59 ± 1.73", "unit": "µM"}, {"measurement": "phosphorylation of AMPK", "setting": "AMPK", "result": "activated phosphorylation of both AMPK and ACC in a dose-dependent manner"}, {"measurement": "percentage of apoptotic cells vs control group", "setting": "H1975 cells [2]; [3]", "result": "significant higher percentage of apoptotic cells"}, {"measurement": "percentage of viable cells vs control group", "setting": "H1975 cells [2]; [3]", "result": "lower percentage of viable cells"}, {"measurement": "apoptosis induction (flow cytometry)", "setting": "H1975 cells [2]; Annexin V/PI", "result": "induced significant level of apoptosis in a dose-dependent manner"}, {"measurement": "cell morphology", "setting": "H1975 cells [2]; morphology observation", "result": "floated and rounded-up starting at 20 μM"}]}
